Entries after “also recorded” stand apart in the source; their conditions may differ.
System: participants with IPF
Assay: Phase 2 IPF cohort efficacy: rate of change in ppFVC / FVC to Week 26
Format: in vivo, human
Protocol: A total of 278 participants with IPF were randomized and 276 participants were treated as of […] analyses data cut-off (4 Aug. 2022). Male and female participants ≥40 years of age with IPF and percent predicted forced vital capacity (ppFVC) ≥40% and percent predicted DLCO (ppDLCO) ≥25%; diagnosed within 7 years of screening; having a centrally-read chest HRCT obtained at screening that was consistent with UIP or probable UIP, or having a lung biopsy consistent with UIP, were eligible to enter the study. The mean baseline ppFVC for all subjects was 76.5%. In the primary IPF cohort, participants were randomized (1:1:1) to receive 30 mg or 60 mg Compound A or placebo (PBO) twice daily for 26 weeks. Participants were stratified by standard of care (SoC) IPF therapy (pirfenidone versus nintedanib versus none) and region (Japan versus Rest of World) at randomization.
The primary objective of the study was to determine the rate of change in ppFVC from baseline to Week 26. The primary objective was evaluated with a two estimand framework to handle the intercurrent event of dose reduction to 10 mg BID or matching PBO when pre-specified low BP criteria is met. The primary estimand is adopted to estimate treatment effect when dose reduction is implemented. The supplementary estimand is adopted to estimate the effect of treatment without dose reduction.
Analysis Strategy: The primary estimand was to evaluate the efficacy of Compound A at 30 mg or 60 mg twice daily, compared to PBO in IPF participants who met the enrollment criteria, with or without use of SoC. The rate of decline in ppFVC (%) from baseline to Week 26 was compared using the difference between each dose and PBO as a population level summary regardless of dose reduction or treatment discontinuation for any reason (treatment policy strategy).
Analysis Strategy: The supplementary estimand for the primary objective is to evaluate the efficacy of Compound A at 30 mg or 60 mg twice daily without dose reduction, compared to the PBO in IPF subjects who met the enrollment criteria, with or without use of SoC. The rate of decline in ppFVC (%) from baseline to Week 26 has been compared using the difference between each dose and PBO as a population level summary regardless of treatment discontinuation for any reason (treatment policy strategy). In the event of dose reduction, data collected after dose reduction will not be considered relevant to the treatment effect of interest and therefore, will be treated as missing (while-on-treatment strategy).

For `CCCN(C)C(=O)OCc1c(-c2ccc(O[C@H]3CCC[C@H](C(=O)O)C3)c(C)n2)nnn1C` [Compound A, (1S,3S)-3-((2-methyl-6-(1-methyl-5-(((methyl(propyl)carbamoyl)-oxy)methyl)-1H-1,2,3-triazol-4-yl)pyridin-3-yl)oxy)cyclohexane-1-carboxylic acid], the “Treatment differences in rates of change in ppFVC with and without background antifibrotic” value (IPF cohort) was “consistent between both groups”, the “Efficacy vs PBO” value (IPF, 30 mg BID, overall population) was “did not demonstrate efficacy compared to PBO” and the “Response by background SoC subgroup vs PBO” value (IPF, 60 mg BID, SoC (nintedanib or pirfenidone) and no SoC) was “favorable responses on the primary endpoint; also recorded: favorable efficacy; also recorded: favorable impact on FVC compared with PBO when used alone or on background therapy with nintedanib or pirfenidone”. The “Treatment response (rate of decline of ppFVC and FVC) vs PBO” value (IPF, 60 mg BID, Week 26, overall population) was “demonstrated favorable treatment responses versus PBO”, the “Slope difference (SE) in rate of decline in FVC, 60 mg - PBO” value (IPF, 60 mg BID, baseline to Week 26, supplementary estimand, Overall) was 61.4 (29.35) mL and the “Relative treatment benefit (ppFVC decline) compared to PBO” value (“Relative treatment benefit” for short) (IPF, 60 mg BID, primary estimand, not on background SoC) was 113%. The “Relative treatment benefit” value (IPF, 60 mg BID, primary estimand, on background SoC) was 39%, the “Relative treatment benefit” value (IPF, 60 mg BID, supplementary estimand, not on background SoC) was 123% and the “Relative treatment benefit” value (IPF, 60 mg BID, supplementary estimand, on background SoC) was 44%.

Reference: patent publication US20260207569A1, “LPA1 ANTAGONISTS FOR TREATING INTERSTITIAL LUNG DISEASE” (Bristol-Myers Squibb Company, priority 2022, published 2026)
